Active and inactive are the calls of the source. The rule behind the calls is not given here.
Key:
[1] = system: B16; assay: Antineoplastic activity against mouse B16 cells allografted in BDF1 mouse assessed as survival at 30 mg/kg qd for 9 days; format: functional, organism-based; parameters: dose 30 mg/kg
[2] = system: B16; assay: Antineoplastic activity against mouse B16 cells allografted in BDF1 mouse at 30 mg/kg qd for 9 days relative to control; format: functional
[3] = system: B16; assay: Antineoplastic activity against mouse B16 cells allografted in BDF1 mouse assessed as survival at 15 mg/kg qd for 9 days; format: functional, organism-based; parameters: dose 15 mg/kg
[4] = system: B16; assay: Antineoplastic activity against mouse B16 cells allografted in BDF1 mouse at 15 mg/kg qd for 9 days relative to control; format: functional
[5] = system: B16; assay: Antineoplastic activity against mouse B16 cells allografted in BDF1 mouse assessed as survival at 7.5 mg/kg qd for 9 days; format: functional, organism-based; parameters: dose 7.5 mg/kg
[6] = system: B16; assay: Antineoplastic activity against mouse B16 cells allografted in BDF1 mouse at 7.5 mg/kg qd for 9 days relative to control; format: functional
[7] = system: B16; assay: Antineoplastic activity against mouse B16 cells allografted in BDF1 mouse assessed as survival at 3.75 mg/kg qd for 9 days; format: functional, organism-based; parameters: dose 3.75 mg/kg
[8] = system: B16; assay: Antineoplastic activity against mouse B16 cells allografted in BDF1 mouse at 3.75 mg/kg qd for 9 days relative to control; format: functional
[9] = system: B16; assay: Antineoplastic activity against mouse B16 cells allografted in BDF1 mouse assessed as survival at 1.88 mg/kg qd for 9 days; format: functional, organism-based; parameters: dose 1.88 mg/kg
[10] = system: B16; assay: Antineoplastic activity against mouse B16 cells allografted in BDF1 mouse at 1.88 mg/kg qd for 9 days relative to control; format: functional
[11] = system: Colon 26; assay: Antineoplastic activity against mouse Colon 26 cells allografted in CDF1 mouse assessed as survival at 15 mg/kg qd for 9 days; format: functional, organism-based; parameters: dose 15 mg/kg
[12] = system: Colon 26; assay: Antineoplastic activity against mouse Colon 26 cells allografted in CDF1 mouse at 15 mg/kg qd for 9 days relative to control; format: functional
[13] = system: Colon 26; assay: Antineoplastic activity against mouse Colon 26 cells allografted in CDF1 mouse assessed as survival at 7.5 mg/kg qd for 9 days; format: functional, organism-based; parameters: dose 7.5 mg/kg
[14] = system: Colon 26; assay: Antineoplastic activity against mouse Colon 26 cells allografted in CDF1 mouse at 7.5 mg/kg qd for 9 days relative to control; format: functional
[15] = system: Colon 26; assay: Antineoplastic activity against mouse Colon 26 cells allografted in CDF1 mouse assessed as survival at 3.75 mg/kg qd for 9 days; format: functional, organism-based; parameters: dose 3.75 mg/kg
[16] = system: Colon 26; assay: Antineoplastic activity against mouse Colon 26 cells allografted in CDF1 mouse at 3.75 mg/kg qd for 9 days relative to control; format: functional
[17] = system: Colon 26; assay: Antineoplastic activity against mouse Colon 26 cells allografted in CDF1 mouse assessed as survival at 1.88 mg/kg qd for 9 days; format: functional, organism-based; parameters: dose 1.88 mg/kg
[18] = system: Colon 26; assay: Antineoplastic activity against mouse Colon 26 cells allografted in CDF1 mouse at 1.88 mg/kg qd for 9 days relative to control; format: functional
[19] = system: L1210; assay: Antineoplastic activity against mouse L1210 cells allografted in CDF1 mouse assessed as survival at 15 mg/kg qd for 9 days; format: functional, organism-based; parameters: dose 15 mg/kg
[20] = system: L1210; assay: Antineoplastic activity against mouse L1210 cells allografted in CDF1 mouse at 15 mg/kg qd for 9 days relative to control; format: functional
[21] = system: L1210; assay: Antineoplastic activity against mouse L1210 cells allografted in CDF1 mouse assessed as survival at 7.5 mg/kg qd for 9 days; format: functional, organism-based; parameters: dose 7.5 mg/kg
[22] = system: L1210; assay: Antineoplastic activity against mouse L1210 cells allografted in CDF1 mouse at 7.5 mg/kg qd for 9 days relative to control; format: functional
[23] = system: L1210; assay: Antineoplastic activity against mouse L1210 cells allografted in CDF1 mouse assessed as survival at 3.75 mg/kg qd for 9 days; format: functional, organism-based; parameters: dose 3.75 mg/kg
[24] = system: L1210; assay: Antineoplastic activity against mouse L1210 cells allografted in CDF1 mouse at 3.75 mg/kg qd for 9 days relative to control; format: functional
[25] = system: L1210; assay: Antineoplastic activity against mouse L1210 cells allografted in CDF1 mouse assessed as survival at 1.88 mg/kg qd for 9 days; format: functional, organism-based; parameters: dose 1.88 mg/kg
[26] = system: L1210; assay: Antineoplastic activity against mouse L1210 cells allografted in CDF1 mouse at 1.88 mg/kg qd for 9 days relative to control; format: functional
[27] = system: P388; assay: Antineoplastic activity against mouse P388 cells allografted in CDF1 mouse assessed as survival at 20 mg/kg qd for 9 days; format: functional, organism-based; parameters: dose 20 mg/kg
[28] = system: P388; assay: Antineoplastic activity against mouse P388 cells allografted in CDF1 mouse at 20 mg/kg qd for 9 days relative to control; format: functional
[29] = system: P388; assay: Antineoplastic activity against mouse P388 cells allografted in CDF1 mouse assessed as survival at 10 mg/kg qd for 9 days; format: functional, organism-based; parameters: dose 10 mg/kg
[30] = system: P388; assay: Antineoplastic activity against mouse P388 cells allografted in CDF1 mouse at 10 mg/kg qd for 9 days relative to control; format: functional
[31] = system: P388; assay: Antineoplastic activity against mouse P388 cells allografted in CDF1 mouse assessed as survival at 5 mg/kg qd for 9 days; format: functional, organism-based; parameters: dose 5 mg/kg
[32] = system: P388; assay: Antineoplastic activity against mouse P388 cells allografted in CDF1 mouse at 5 mg/kg qd for 9 days relative to control; format: functional
[33] = system: P388; assay: Antineoplastic activity against mouse P388 cells allografted in CDF1 mouse assessed as survival at 2.5 mg/kg qd for 9 days; format: functional, organism-based; parameters: dose 2.5 mg/kg
[34] = system: P388; assay: Antineoplastic activity against mouse P388 cells allografted in CDF1 mouse at 2.5 mg/kg qd for 9 days relative to control; format: functional

O=C1c2ccccc2C(=O)c2c(NCCNCCO)ccc(O)c21
Activity [1]: Active | T/C [2]: 326% | Activity [3]: Active | T/C [4]: 271% | Activity [5]: Active | T/C [6]: 254% | Activity [7]: Active | T/C [8]: 201% | Activity [9]: Active | T/C [10]: 157% | Activity [11]: Active | T/C [12]: 182% | Activity [13]: Active | T/C [14]: 196% | Activity [15]: Active | T/C [16]: 177% | Activity [17]: Active | T/C [18]: 162% | Activity [19]: Active | T/C [20]: 151% | Activity [21]: Active | T/C [22]: 193% | Activity [23]: Active | T/C [24]: 147% | Activity [25]: Active | T/C [26]: 136% | Activity [27]: Active | T/C [28]: 178% | Activity [29]: Active | T/C [30]: 342% | Activity [31]: Active | T/C [32]: 226% | Activity [33]: Active | T/C [34]: 216%

Source: ChEMBL document CHEMBL3244053, “Structural modification study of bis(substituted aminoalkylamino)anthraquinones. An evaluation of the relationship of the [2-[(2-hydroxyethyl)amino]ethyl]amino side chain with antineoplastic activity” (1979)
